{
  "source": "paper PMC9161616",
  "about": "“A first-in-human phase 1/2 study of FGF401 and combination of FGF401 with spartalizumab in patients with hepatocellular carcinoma or biomarker-selected solid tumors” (Journal of Experimental & Clinical Cancer Research : CR, 2022)",
  "key": {"[1]": {"test": "Plasma pharmacokinetics of FGF401 (noncompartmental) and food effect", "assay_type": "in vivo, human", "protocol": "Pharmacokinetic endpoints included plasma concentrations and PK parameters of FGF401 and spartalizumab. Pharmacokinetic parameters were determined with noncompartmental method(s) using Phoenix WinNonlin version 6.4 or above (Pharsight Corporation, Mountain View, Califormia, USA). Immunogenicity of spartalizumab was assessed through presence and/or concentration of anti-drug (spartalizumab) antibodies (ADA). Food effect on FGF401 exposure was evaluated through plasma concentration of FGF401 and relevant PK parameters when dosing under fed condition. Safety of the food effect was assessed through incidence and severity of AEs and serious AEs (SAEs), including changes in laboratory values, vital signs, and ECGs when dosing under fed condition. The PK analyses and summary statistics were based on pharmacokinetic analysis set. Individual as well as mean concentration-time profiles were constructed using concentration data for spartalizumab and FGF401. Descriptive statistics for PK parameters included mean, standard deviation, coefficient of variation (CV%) mean, geometric mean, median, minimum, and maximum, with only the latter 3 for time to reach maximum concentration (Tmax) and additional 90% CI for accumulation ratio (Racc). Zero concentrations were not included in the geometric mean calculations. Missing concentrations or PK parameter values were not imputed."}, "phospho-FGFR4": {"system": "phospho-FGFR4", "test": "Preclinical in vivo phospho-FGFR4 inhibition", "settings": "equivalent of 52.1 nM"}, "[2]": {"system": "cell-line derived HCC xenografts and patient-derived HCC xenografts", "settings": "dose-dependent manner; cited from earlier work"}, "[3]": {"system": "patients with HCC or other solid malignancies", "protocol": "FGF401 was administered per oral under fasted condition or with low-fat meal on a continuous once daily (qd) regimen for both FGF401 single agent and in combination with spartalizumab. A 300-mg intravenous infusion of spartalizumab was administered once every three weeks (q3w) and 1 treatment cycle was defined as 21 days. The study treatment was administered until the patient experienced unacceptable toxicity, progressive disease and/or the treatment was discontinued at investigator’s discretion or patient’s withdrawal of consent. Figure 1 summarizes the study design and visit flow.\nThe secondary endpoints characterizing safety, efficacy, pharmacokinetics (PK), immunogenicity, and food effect properties of the FGF401 and the combination were based on the assessments on their respectively defined population sets. Adverse events (AEs) that emerged during treatment were monitored throughout the study until 30 days after discontinuation of the single agent and 150 days after discontinuation of the combination. Adverse events were coded using the Medical Dictionary for Regulatory Activities (MedDRA) and assessed as per Common Terminology Criteria for Adverse Events (CTCAE) version 4.03. The clinical laboratory assessments were collected no later than 30 days after the last date of study treatment administration. The grades were classified as low/normal/high when not defined by CTCAE v4.03. Other assessments of vital signs, physical examinations, and electrocardiogram (ECG) parameters were also performed.\nSafety analyses conducted in the safety set constituted summaries for AEs occurring during on-treatment period with number and percentage of patients having at least 1 AE. Summaries presented overview of AEs and deaths (number and percentage of patients who died with any AE, SAE, dose reductions/interruptions, AE leading to discontinuation), SAEs, AEs related to study treatment, AEs leading to treatment discontinuation, dose interruption/adjustment or fatal outcome. Additionally, in combination part, summaries were produced using all treatment-related AEs starting or worsening during the on-treatment or extended safety follow-up periods (within 150 days after the date of last administration of study treatment)."}, "[4]": {"settings": "low fat meals, 80 mg and 120 mg"}, "[5]": {"settings": "single agent, All patients N = 160"}},
  "data": [
    {"smiles": "COCCNc1cc(NC(=O)N2CCCc3cc(CN4CCN(C)CC4=O)c(C=O)nc32)ncc1C#N", "note": "[FGF401, roblitinib]", "values": [
      {"measurement": "food effect on Tmax", "setting": "[1]; [4]", "result": "slightly delayed Tmax"},
      {"measurement": "food effect on half-life", "setting": "[1]; [4]", "result": "no effect on half-life"},
      {"measurement": "drug accumulation following repeated dosing", "setting": "[1]; qd dosing", "result": "no drug accumulation"},
      {"measurement": "IC90 equivalent in human plasma", "setting": "phospho-FGFR4", "result": "~ 23 ng/mL"},
      {"measurement": "tumor response in xenografts", "setting": "[2]", "result": "robustly induces regression/stasis"},
      {"measurement": "patients who died on treatment because of existing cancer", "setting": "[3]; 17 patients of 160", "result": 10.6, "unit": "%"},
      {"measurement": "discontinued treatment because of progressive disease", "setting": "[3]; 130 of 160 patients", "result": 81, "unit": "%"},
      {"measurement": "patients who died on treatment", "setting": "[3]; Twenty patients of 160", "result": 12.5, "unit": "%"},
      {"measurement": "patients who died on treatment because of other reasons", "setting": "[3]; gastric bleeding, multiple organ dysfunction syndrome, unknown cause", "result": 3, "unit": "patients"},
      {"measurement": "AEs leading to FGF401 discontinuation, All grades", "setting": "[3]; human, in vivo", "result": "18 (11.3) n (%)"},
      {"measurement": "AEs leading to FGF401 discontinuation, Grade 3 or 4", "setting": "[3]; human, in vivo", "result": "13 (8.1) n (%)"},
      {"measurement": "AEs leading to FGF401 discontinuation, Treatment related, All grades", "setting": "[3]; human, in vivo", "result": "12 (7.5) n (%)"},
      {"measurement": "AEs leading to FGF401 discontinuation, Treatment related, Grade 3 or 4", "setting": "[3]; human, in vivo", "result": "8 (5.0) n (%)"},
      {"measurement": "AEs leading to FGF401 dose adjustment/interruption, All grades", "setting": "[3]; human, in vivo", "result": "80 (50.0) n (%)"},
      {"measurement": "AEs leading to FGF401 dose adjustment/interruption, Grade 3 or 4", "setting": "[3]; human, in vivo", "result": "58 (36.3) n (%)"},
      {"measurement": "AEs leading to FGF401 dose adjustment/interruption, Treatment related, All grades", "setting": "[3]; human, in vivo", "result": "47 (29.4) n (%)"},
      {"measurement": "AEs leading to FGF401 dose adjustment/interruption, Treatment related, Grade 3 or 4", "setting": "[3]; human, in vivo", "result": "34 (21.3) n (%)"},
      {"measurement": "ALT increased leading to FGF401 discontinuation", "setting": "[3]; human, in vivo", "result": 3.8, "unit": "%"},
      {"measurement": "AST increased leading to FGF401 discontinuation", "setting": "[3]; human, in vivo", "result": 1.9, "unit": "%"},
      {"measurement": "Constipation, Grade 3/4", "setting": "[3]; human, in vivo", "result": "0 n (%)"},
      {"measurement": "Decreased appetite, Grade 3/4", "setting": "[3]; human, in vivo", "result": "0 n (%)"},
      {"measurement": "Edema peripheral, Grade 3/4", "setting": "[3]; human, in vivo", "result": "0 n (%)"},
      {"measurement": "Grade 3 or 4 AEs suspected to be related to study treatment", "setting": "[3]; human, in vivo", "result": 31.9, "unit": "%"},
      {"measurement": "Grade 3 or 4 related ALT elevated", "setting": "[3]; human, in vivo", "result": 15.0, "unit": "%"},
      {"measurement": "Grade 3 or 4 related AST increased", "setting": "[3]; human, in vivo", "result": 18.8, "unit": "%"},
      {"measurement": "Grade 3 or 4 related diarrhea", "setting": "[3]; human, in vivo", "result": 5.0, "unit": "%"},
      {"measurement": "Nausea, Grade 3/4", "setting": "[3]; human, in vivo", "result": "0 n (%)"},
      {"measurement": "Primary reason for end of treatment: Adverse event", "setting": "[3]; human, in vivo", "result": "18 (11.3) n (%)"},
      {"measurement": "Pyrexia, Grade 3/4", "setting": "[3]; human, in vivo", "result": "0 n (%)"},
      {"measurement": "SAEs, Treatment related, Grade 3 or 4", "setting": "[3]; human, in vivo", "result": "7 (4.4) n (%)"},
      {"measurement": "blood bilirubin increased leading to FGF401 discontinuation", "setting": "[3]; human, in vivo", "result": 2.5, "unit": "%"},
      {"measurement": "dose interruption due to AEs", "setting": "[3]; human, in vivo", "result": 52.5, "unit": "%"},
      {"measurement": "dose reduction due to AEs", "setting": "[3]; human, in vivo", "result": 18.1, "unit": "%"},
      {"measurement": "patients with a grade 3 or 4 AE", "setting": "[3]; human, in vivo", "result": 72.5, "unit": "%"},
      {"measurement": "patients with diarrhea", "setting": "[3]; human, in vivo", "result": 73.8, "unit": "%"},
      {"measurement": "patients with dose interruption", "setting": "[3]; human, in vivo", "result": 60.6, "unit": "%"},
      {"measurement": "patients with dose reduction", "setting": "[3]; human, in vivo", "result": 21.3, "unit": "%"},
      {"measurement": "patients with increased ALT", "setting": "[3]; human, in vivo", "result": 43.8, "unit": "%"},
      {"measurement": "patients with increased AST", "setting": "[3]; human, in vivo", "result": 47.5, "unit": "%"},
      {"measurement": "Primary reason for end of treatment: Death", "setting": "[3]; single agent N=160", "result": "2 (1.3) n (%)"},
      {"measurement": "Primary reason for end of treatment: Progressive disease", "setting": "[3]; single agent N=160", "result": "130 (81.3) n (%)"},
      {"measurement": "AEs, All grades", "setting": "[3]; [5]", "result": "160 (100) n (%)"},
      {"measurement": "AEs, Grade 3 or 4", "setting": "[3]; [5]", "result": "116 (72.5) n (%)"},
      {"measurement": "AEs, Treatment related, All grades", "setting": "[3]; [5]", "result": "148 (92.5) n (%)"},
      {"measurement": "AEs, Treatment related, Grade 3 or 4", "setting": "[3]; [5]", "result": "51 (31.9) n (%)"},
      {"measurement": "Fatal SAEs, All grades", "setting": "[3]; [5]", "result": "3 (1.9) n (%)"},
      {"measurement": "Fatal SAEs, Grade 3 or 4", "setting": "[3]; [5]", "result": "3 (1.9) n (%)"},
      {"measurement": "Fatal SAEs, Treatment related, All grades", "setting": "[3]; [5]", "result": "0 n (%)"},
      {"measurement": "Fatal SAEs, Treatment related, Grade 3 or 4", "setting": "[3]; [5]", "result": "0 n (%)"},
      {"measurement": "SAEs, All grades", "setting": "[3]; [5]", "result": "70 (43.8) n (%)"},
      {"measurement": "SAEs, Grade 3 or 4", "setting": "[3]; [5]", "result": "55 (34.4) n (%)"},
      {"measurement": "SAEs, Treatment related, All grades", "setting": "[3]; [5]", "result": "8 (5.0) n (%)"}
    ]}
  ]
}
